How the values were obtained:
Jurkat cells = assay: Seahorse XF assay (ECAR and OCR) in Jurkat cells; format: cell-based, human; details: 100 µM added 24 hours before the experiment; treated versus untreated cells
Experimental: The efficiency of Inhibitors No. 3 and No. 9 was also tested by the determinations of glycolytic capacities in Jurkat cells in the presence and absence of inhibitors. For this purpose, Seahorse XF assay (Agilent Technology) was performed that enables non-destructive measurements of extracellular acidification rate (ECAR) and oxygen consumption rate (OCR) of tested cells. The cells were incubated in […] GlutaMAX medium with 10% FBS and 24 hours before the experiment inhibitors were added (100 µM). Non-adherent Jurkat cells (1×10^6 per mL) were stuck to the bottom of the wells by poly-I-lysine. The experiment was conducted essentially as recommended by Seahorse XF protocol and after 20 minutes of incubation, 1 µM of oligomycin A (ATP synthase inhibitor) and 0,25 µM of Carbonyl cyanide-4-(trifluoromethoxy)phenylhydrazone (FCCP) (mitochondrial oxidative phosphorylation uncoupler) were added to the cells. […] Reduced lactate excretion by the cells treated with both inhibitors might be responsible for reduced ECARs. Although the addition of oligomycin A and FCCP increased the extracellular acidification rate by the cells treated with both inhibitors, similar increase of ECAR was also observed in the untreated cells. […] It implies that inhibited PFK1 enzymes might reduce glycolytic flux and prevent the need for pyruvate reduction into lactate by re-oxidizing redundant cytosolic NADH. Under such conditions pyruvate can enter mitochondria, replenishing tri-carboxylic acids (TCA) cycle and fuelling oxidative respiration.

[1] = tested on: human embryonic kidney (HEK 293) cells; assay: lactate excretion by non-tumorigenic HEK 293 cells; format: cell-based
Experimental: (§1) The effect of Inhibitor No. 3 on lactate excretion was tested also on two non-tumorigenic cell lines. First, fast proliferating human embryonic kidney (HEK 293) cells were assessed for lactate formation in the presence of Inhibitor No. 3. RPMI 1640 GlutaMAX medium (Thermo Fisher) supplemented with 10% FBS was used as a growth medium. […] About 95 mg/L of lactate were detected after 72 hours of incubation by untreated cells (control) and by the cells growing in the presence of Inhibitor No. 3 (Figure 9a). Similar results were recorded also by non-tumorigenic MCF-10A cell line isolated form the epithelial cells of the mammary gland. The cells were cultivated in MEBM medium supplemented by additives that were obtained as a MEGM Kit from Lonza/Clonetics Corporation. Characteristically these cells grew slower than HEK 293 cells with correspondingly slower lactate excretion rate. After 96 hours of incubation, only about 27 mg/L of lactate was detected in the medium. Again, no influence of different concentrations of Inhibitor No. 3 on lactate generation could be observed (Figure 9b).

MCF-10A cell line = assay: lactate excretion by non-tumorigenic MCF-10A cells; format: cell-based
Experimental: as §1

COLO 829 cells [2] = assay: lactate excretion by COLO 829 cells; format: cell-based; details: inhibitor added 8 hours after inoculation, then at 24-hour intervals; low concentrations (from 10 µM)
Caco-2 cells = assay: cytotoxicity in Caco-2 cells (lactate dehydrogenase (LDH) kit); format: cell-based
Experimental: (§2) Lactate generation, growth yield and survival under normal and inhibitory conditions of three different tumorigenic cells lines were determined in more detailed measurements. […] Cytotoxicity was measured by the Lactate dehydrogenase (LDH) kit (Roche).

COLO 829 cells [3] = assay: cytotoxicity in COLO 829 cells (LDH kit); format: cell-based
Experimental: as §2

[4] = sequential addition at 24-hour intervals, 92 hours, average over medium without and with inhibitor
[5] = single addition, average over control and different concentrations of inhibitor

SMILES: O=C(CSc1nnc(-c2ccc3c(c2)OCO3)o1)Nc1ccon1 [Inhibitor No. 3, 2-[(5-benzo[1,3]dioxol-5-yl-1,3,4-oxadiazol-2-yl)sulfanyl]-N-isoxazol-3-yl-acetamide]
- ECAR and OCR values prior to the addition of oligomycin A and FCCP (Jurkat cells): untreated Jurkat cells revealed higher ECAR and OCR values
- reduction of lactate generation, HEK 293 ([1]; 72 hours of growth, different concentrations of inhibitor): no significant reduction of lactate generation
- lactate detected, HEK 293 ([1]; after 72 hours of incubation, same for untreated control): About 95 mg/L
- lactate detected in the medium, MCF-10A (MCF-10A cell line; after 96 hours of incubation, no influence of inhibitor concentration): about 27 mg/L
- influence on lactate generation, MCF-10A (MCF-10A cell line; different concentrations, 96 hours): no influence
- lactate formation in COLO 829 cells, sequential re-insertion (COLO 829 cells [2]): strong reduction of lactate formation
- average percentages of dead cells, Caco-2, sequential re-insertion (Caco-2 cells; [4]): 5,38±0,4%
- average percent of dead cells, Caco-2 (Caco-2 cells; [5]): 3,99±0,08%
- average percentages of dead cells, COLO 829, sequential re-insertion (COLO 829 cells [3]; [4]): 1,95±0,15%
- average percent of dead COLO 829 cells (COLO 829 cells [3]; [5]): 5,01±1,08%

— EP3833345B1, “SMALL MOLECULE-INHIBITORS OF 6-PHOSPHOFRUCTO-1-KINASE FOR REDUCING LACTATE GENERATION BY CANCER CELLS” (Kemijski Institut, priority 2018, dated 2020)
